The values that follow come from patent publication US10829484B2, “Compounds and methods for kinase modulation, and indications therefor” (Plexxikon Inc., priority 2015, dated 2020).

One experiment addresses T1, BaF3-FLT3-ITD (Homo sapiens, UniProt P36888, INS600HVDFREYEYD, cells depend on it).
T1 sequence (P36888 with tags, fused parts or gaps INS600HVDFREYEYD): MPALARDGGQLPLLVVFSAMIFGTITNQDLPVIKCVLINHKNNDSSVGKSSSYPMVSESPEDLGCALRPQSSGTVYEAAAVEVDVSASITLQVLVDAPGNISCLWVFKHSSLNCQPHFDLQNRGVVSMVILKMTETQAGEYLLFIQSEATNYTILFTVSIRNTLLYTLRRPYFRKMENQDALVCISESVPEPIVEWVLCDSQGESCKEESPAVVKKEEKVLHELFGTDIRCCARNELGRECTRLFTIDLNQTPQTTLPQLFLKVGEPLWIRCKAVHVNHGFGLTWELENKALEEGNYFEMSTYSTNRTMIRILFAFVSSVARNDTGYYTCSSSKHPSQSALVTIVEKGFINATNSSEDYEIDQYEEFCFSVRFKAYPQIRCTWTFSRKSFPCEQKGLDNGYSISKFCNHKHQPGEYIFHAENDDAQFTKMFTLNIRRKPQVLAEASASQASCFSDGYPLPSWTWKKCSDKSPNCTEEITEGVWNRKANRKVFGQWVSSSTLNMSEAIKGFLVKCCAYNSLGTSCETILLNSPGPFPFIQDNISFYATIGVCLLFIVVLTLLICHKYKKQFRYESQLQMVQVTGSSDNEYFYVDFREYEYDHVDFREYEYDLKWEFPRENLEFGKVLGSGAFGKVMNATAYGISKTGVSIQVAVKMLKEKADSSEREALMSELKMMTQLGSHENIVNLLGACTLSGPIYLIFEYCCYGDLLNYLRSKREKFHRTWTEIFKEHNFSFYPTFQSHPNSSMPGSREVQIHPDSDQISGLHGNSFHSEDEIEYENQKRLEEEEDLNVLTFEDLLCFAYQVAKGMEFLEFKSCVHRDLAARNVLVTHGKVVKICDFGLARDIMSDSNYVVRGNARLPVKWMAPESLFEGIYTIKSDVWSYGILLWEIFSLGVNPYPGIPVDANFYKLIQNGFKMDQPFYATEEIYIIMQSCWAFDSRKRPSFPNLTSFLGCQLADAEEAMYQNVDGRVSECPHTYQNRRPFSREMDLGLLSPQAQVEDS
The experiment is described as follows: CTB viability assay CS0046, BaF3-FLT3-ITD. Particulars: CellTiter Blue viability, 72 hours. Type of experiment: cell-based, murine. From the text:
(§1) Gene constructs containing the human FLT3 sequences FLT3-ITD, FLT3-ITD-F691L, FLT3-ITD-D835V and FLT3-D835V were synthesized by reverse translation of the human protein sequences, with codons optimized for mammalian expression. Sequence of the internal tandem duplication (ITD) was based on the MV4-11 ITD sequence. Synthetic DNA constructs were cloned into the pMSCV puro retroviral vector (Clontech) and transfected into the EcoPack2-293 packaging cell line (Clontech) to generate retroviruses that contain the different FLT3 constructs. Viruses were transduced into the IL-3-dependent, murine […] cell line, Ba/F3, and selected for puromycin resistance and IL-3 independence. All cell lines were cloned by limiting dilution and clones were used for all subsequent cell assays. Overexpression of the FLT3 mutants in the Ba/F3 cells results in constitutive phosphorylation of the exogenous FLT3 protein, which is required for IL-3 independence.
(§2) Cell lines were serum starved overnight in media containing 0.5% FBS, plated at 15,000 cells/well in 96-well white-walled tissue culture plates, and 3-fold serial dilutions of test compounds of Formula I were added for 72 hours at 37° C. CellTiter Blue (CTB, Promega) was added and incubated for an additional 3 hours at 37° C. Fluorescence was read at 560 nm excitation, 590 nm emission. Wells with CTB+media only were used for background subtraction, and the fluorescence of compound-treated cells was normalized to the fluorescence of DMSO-treated cells. IC50s were determined using Igor Pro software. All compounds are assayed in duplicate cell plates.
On the technique in general: The colour change of resazurin is a common sign of viable cells or microbes.

The target in another experiment is T2, BaF3-FLT3-ITD-F691L (Homo sapiens, UniProt P36888, INS600HVDFREYEYD/F691L, cells depend on it).
T2 sequence (P36888 with tags, fused parts or gaps INS600HVDFREYEYD/F691L): T1 sequence (P36888 with tags, fused parts or gaps INS600HVDFREYEYD) with F701L
Kind of experiment: CTB viability assay CS0047, BaF3-FLT3-ITD-F691L. Type of experiment: cell-based, murine. Particulars: CellTiter Blue viability, 72 hours.
Description: as §1, §2

[1] abbreviates: BaF3-FLT3-ITD cells, read-out: Cell Assay: CS0046:BaF3-FLT3-ITD CTB:IC50.
Where [2] appears, read: BaF3-FLT3-ITD-F691L cells, read-out: Cell Assay: CS0047:BaF3-FLT3-ITD-F691L CTB:IC50.
The mark [3] stands for this setting: Table 4, compounds from WO 2011/022473, read-out: Cell Assay: CS0046: BaF3-FLT3-ITD CTB: IC50.
Where [4] appears, read: Table 4, compounds from WO 2011/022473, read-out: Cell Assay: CS0047: BaF3-FLT3-ITD-F691L CTB: IC50.
The mark [5] stands for this setting: Table 3, read-out: Cell Assay: CS0046: BaF3-FLT3-ITD CTB: IC50.
[6] abbreviates: Table 3, read-out: Cell Assay: CS0047: BaF3-FLT3-ITD-F691L CTB: IC50.

Structures are written as SMILES. Residue numbers refer to the chain shown, from its start. Where two headings read alike, the source gives them in different places.

Turning to `Cc1nn(C)c(C)c1Nc1ncc(-c2ccc(CC(=O)Nc3cc(C4(C(F)(F)F)CC4)on3)c(F)c2)cn1` [P-029, 2-[2-fluoro-4-[2-[(l,3,5-trimethylpyrazol-4-yl)amino]pyrimidin-5-yl]phenyl]-N-[5-[1-(trifluoromethyl)cyclopropyl]isoxazol-3-yl]acetamide], the GI50 on BaF3-FLT3-ITD (setting [1]) and on BaF3-FLT3-ITD-F691L (setting [2]) was 10 to 50 nM each time.
Regarding `CC(C)(c1cc(NC(=O)Cc2ccc(-c3ccc(NCCN4CCOCC4)nc3)cc2)no1)C(F)(F)F` [reference compound], the GI50 at BaF3-FLT3-ITD (setting [3]) was 0.597 nM; on BaF3-FLT3-ITD-F691L (setting [4]), 73.9 nM.
The matching figures for `CCNc1ccc(-c2ccc(CC(=O)Nc3cc(C(C)(C)C)on3)cc2)cn1` [reference compound]: 0.252 nM and 45.4 nM.
On to `CC(C)(C)c1cc(NC(=O)Nc2ccc(-c3cnc(NC4CCOCC4)nc3)cn2)no1` [reference compound], for which the GI50 worked out at 6.6 nM at BaF3-FLT3-ITD (setting [3]) and 110 nM on BaF3-FLT3-ITD-F691L (setting [4]).
The matching figures for `CC(C)(C)c1cc(NC(=O)Nc2ccc(-c3cnc(NC4CC4)nc3)cn2)no1` [reference compound]: 5.91 nM and 77.8 nM.
As to `O=C(O)Cn1cc(Nc2ncc(-c3ccc(CC(=O)Nc4cc(C5(C(F)(F)F)CC5)on4)c(F)c3)cn2)cn1` [P-078, 2-[4-[[5-[3-fluoro-4-[2-oxo-2-[[5-[1-(trifluoromethyl)cyclopropyl]isoxazol-3-yl]amino]ethyl]phenyl]pyrimidin-2-yl]amino]pyrazol-1-yl]acetic acid], the GI50 on BaF3-FLT3-ITD (setting [1]) and on BaF3-FLT3-ITD-F691L (setting [2]) was 10 to 50 nM each time.
As to `CNc1ccc(-c2ccc(CC(=O)Nc3cc(C(C)(C)C)on3)cc2)cn1` [reference compound], the GI50 was determined as 0.146 nM on BaF3-FLT3-ITD (setting [3]) and 43.2 nM at BaF3-FLT3-ITD-F691L (setting [4]).
As for `O=C(Cc1ccc(-c2cnc(Nc3ccccc3)nc2)cc1F)Nc1cc(C2(C(F)(F)F)CC2)on1`, the GI50 at BaF3-FLT3-ITD (setting [5]) was found to be 0.152 nM; on BaF3-FLT3-ITD-F691L (setting [6]) it was 0.728 nM.
Regarding `Cn1cc(Nc2ncc(-c3ccc(CC(=O)Nc4cc(C5(C(F)(F)F)CC5)on4)c(F)c3)cn2)cn1`, the GI50 on BaF3-FLT3-ITD (setting [5]) came out at 0.0861 nM; on BaF3-FLT3-ITD-F691L (setting [6]), 0.189 nM.
